tested on: strain of P. aeruginosa, PAM1723, overexpressing the MexAB-OprM efflux pump; assay: checkerboard assay, levofloxacin potentiating activity (broth microdilution); format: cell-based; details: lowest inhibitor concentration giving antibacterial activity with levofloxacin at 1/32 of its MIC; MHB, 20 h, 35° C.
Method: All EPI compounds were readily soluble in water and stock solutions were prepared at a final concentration of 10 mg/ml. Stock solutions were further diluted, according to the needs of the particular assay, in Mueller Hinton Broth (MHB). Stock solution was stored at −80° C.
The checkerboard assay was performed in microtiter plates. […] EPIs were diluted in the y-axis, each row containing a single concentration of an EPI. The result of these manipulations was that each well of the microtiter plate contained a unique combination of concentrations of the two agents. The assay was performed in MHB with a final bacterial inoculum of 5 times 10^5 CFU/ml (from an early-log phase culture). Microtiter plates were incubated during 20 h at 35° C. and were read using a microtiterplate reader (Molecular Devices) at 650 nm as well as visual observation using a microtiter plate-reading mirror.

Compound | MPC32 (Minimum Potentiating Concentration)
NCCN(CCN)C(=O)CC[C@H](N)C(=O)N[C@H](C(=O)Nc1cnc2ccccc2c1)[C@H](O)c1ccc(C(F)(F)F)cc1 [Compound 3, 3-[(1S)-3-[bis(2-azaniumylethyl)carbamoyl]-1-{[(1S,2R)-1-carbamoyl-2-hydroxy-2-[4-(trifluoromethyl)phenyl]ethyl]carbamoyl]propan-1-aminium]quinolin-1-ium tetrachloride] | >10 µg/mL
NCCN(CCN)C(=O)C[C@H](N)C(=O)N[C@@H](CCc1ccccc1)C(=O)Nc1cnc2ccccc2c1 [Compound 2] | 5 µg/mL
CN(C(=O)[C@@H](N)CCC(=O)N(CCN)CCN)[C@@H](Cc1ccc(C(F)(F)F)cc1)C(=O)Nc1cnc2ccccc2c1 [Compound 5, 3-[(1S)-3-[bis(2-azaniumylethyl)carbamoyl]-1-{[(1S)-1-carbamoyl-2-[4-(trifluoromethyl)phenyl]ethyl](methyl)carbamoyl}propan-1-aminium]quinolin-1-ium tetrachloride] | >10 µg/mL
NCCN(CCN)C(=O)CC[C@H](N)C(=O)N/C(=C/c1ccc(C(F)(F)F)cc1)C(=O)Nc1cnc2ccccc2c1 [Compound 4, 3-[(1S)-3-[bis(2-azaniumylethyl)carbamoyl]-1-{[(1E)-1-carbamoyl-2-[4-(trifluoromethyl)phenyl]eth-1-en-1-yl]carbamoyl}propan-1-aminium]quinolin-1-ium tetrachloride] | 2.5 µg/mL
NCCN(CCN)C(=O)CC[C@H](N)C(=O)N[C@H](Cc1ccc(C(F)(F)F)cc1)C(=O)Nc1cnc2ccccc2c1 [Compound 1, 3-[(1S)-3-[bis(2-azaniumylethyl)carbamoyl]-1-{[(1R)-1-carbamoyl-2-[4-(trifluoromethyl)phenyl]ethyl]carbamoyl}propan-1-aminium]quinolin-1-ium tetrachloride] | 0.6 µg/mL

— US20080318957A1, “POLYBASIC BACTERIAL EFFLUX PUMP INHIBITORS AND THERAPEUTIC USES THEREOF” (priority 2007, published 2008)
